Article PMC10294662, “Small Molecule Attenuates Bacterial Virulence by Targeting Conserved Response Regulator” (mBio, 2023)

Biological target: VicR (Streptococcus mutans, UniProt I6L8Z5)
Assay: bio-layer interferometry, biotinylated 2B5 on streptavidin sensors; pulldown of recombinant VicR and VicR-N
Type: binding
Parameters: gene covR; recombinant VicR; VicR-N (1 to 125 amino acid residues) also captured, VicR-C (126 to 235) not captured

Sequence of VicR (I6L8Z5 entry or part of it): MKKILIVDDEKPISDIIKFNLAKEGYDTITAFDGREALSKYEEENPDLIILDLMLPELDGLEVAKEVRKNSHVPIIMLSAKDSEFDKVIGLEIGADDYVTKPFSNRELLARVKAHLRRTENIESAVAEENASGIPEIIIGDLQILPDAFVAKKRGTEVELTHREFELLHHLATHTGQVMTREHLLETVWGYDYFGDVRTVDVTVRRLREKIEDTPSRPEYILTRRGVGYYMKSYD

## CCCCCCCCCCCCCCCCN(CCCCCCc1cn(CCNC(=O)CCCC[C@@H]2SC[C@@H]3NC(=O)N[C@@H]32)nn1)C(=O)CCCc1c[nH]c(N)n1 [Bio2B5, biotinylated 2B5]
  Kd: 38 ± 6.3 µM
